Results from US11891365B2, “3-alkyl-4-amido-bicyclic [4,5,0] hydroxamic acids as HDAC inhibitors” (Valo Health, Inc., priority 2015, dated 2024).
pIC50: −log10 of the molar value.

target: T1, Full length human recombinant HDAC6 protein (Homo sapiens, UniProt Q9UBN7); test: In vitro histone deacetylase assay: enzymatic HDAC6 electrophoretic mobility shift assay; type: biochemical; details: 1 nM enzyme, 2 μM peptide substrate RHKK(Ac)-NH2, 25° C., 12 concentrations; read-out: Inhibitory Concentration (IC50) Values against HDAC6, Activity Range
T1 sequence (Q9UBN7 1-1215): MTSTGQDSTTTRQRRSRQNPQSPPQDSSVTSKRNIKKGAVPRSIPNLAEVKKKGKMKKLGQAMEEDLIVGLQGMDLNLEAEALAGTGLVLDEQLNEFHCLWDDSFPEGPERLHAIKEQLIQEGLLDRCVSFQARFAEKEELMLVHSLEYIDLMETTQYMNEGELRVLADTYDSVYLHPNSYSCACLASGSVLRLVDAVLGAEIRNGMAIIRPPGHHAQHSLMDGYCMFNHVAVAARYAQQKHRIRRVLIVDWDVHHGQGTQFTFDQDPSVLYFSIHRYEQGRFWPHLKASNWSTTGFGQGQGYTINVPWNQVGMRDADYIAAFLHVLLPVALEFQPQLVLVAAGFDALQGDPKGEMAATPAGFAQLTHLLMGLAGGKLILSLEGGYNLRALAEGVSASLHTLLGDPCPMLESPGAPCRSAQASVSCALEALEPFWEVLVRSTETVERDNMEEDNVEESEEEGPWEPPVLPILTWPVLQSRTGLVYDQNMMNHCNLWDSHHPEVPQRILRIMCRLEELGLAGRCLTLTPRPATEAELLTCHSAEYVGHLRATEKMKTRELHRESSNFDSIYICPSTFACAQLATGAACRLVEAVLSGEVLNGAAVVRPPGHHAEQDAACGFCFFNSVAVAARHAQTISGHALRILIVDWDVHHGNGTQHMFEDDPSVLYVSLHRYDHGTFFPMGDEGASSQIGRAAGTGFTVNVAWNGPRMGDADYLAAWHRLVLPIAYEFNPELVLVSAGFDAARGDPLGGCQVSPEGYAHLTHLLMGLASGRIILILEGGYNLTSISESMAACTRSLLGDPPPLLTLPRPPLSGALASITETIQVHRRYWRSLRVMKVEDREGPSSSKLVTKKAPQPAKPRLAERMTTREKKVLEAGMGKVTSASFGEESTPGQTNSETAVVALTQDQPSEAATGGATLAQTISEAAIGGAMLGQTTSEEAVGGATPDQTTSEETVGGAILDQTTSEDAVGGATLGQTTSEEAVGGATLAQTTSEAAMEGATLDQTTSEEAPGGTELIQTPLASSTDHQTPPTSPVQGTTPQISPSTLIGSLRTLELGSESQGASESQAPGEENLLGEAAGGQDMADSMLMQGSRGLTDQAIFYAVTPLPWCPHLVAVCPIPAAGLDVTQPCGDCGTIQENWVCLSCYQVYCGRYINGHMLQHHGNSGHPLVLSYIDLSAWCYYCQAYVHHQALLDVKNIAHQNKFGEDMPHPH

`C[C@H]1COc2cc(C(=O)NO)ccc2CN1C(=O)[C@@]1(C)CCCCO1` [(S)-N-hydroxy-3-methyl-4-((R)-2-methyltetrahydro-2H-pyran-2-carbonyl)-2,3,4,5-tetrahydrobenzo[f][1,4]oxazepine-8-carboxamide] and `C[C@H]1COc2cc(C(=O)NO)ccc2CN1C(=O)[C@]1(C)CCCCO1` [(S)-N-hydroxy-3-methyl-4-((S)-2-methyltetrahydro-2H-pyran-2-carbonyl)-2,3,4,5-tetrahydrobenzo[f][1,4]oxazepine-8-carboxamide] cannot be ordered by pIC50: 6.30 to 7.00 for the first, at least 7.00 for the second.

`C[C@H]1COc2cc(C(=O)NO)ccc2CN1C(=O)[C@]1(C)CCOC1` [(S)-N-hydroxy-3-methyl-4-((R)-3-methyltetrahydrofuran-3-carbonyl)-2,3,4,5-tetrahydrobenzo[f][1,4]oxazepine-8-carboxamide] and `C[C@H]1COc2cc(C(=O)NO)ccc2CN1C(=O)[C@@]1(C)CCOC1` [(S)-N-hydroxy-3-methyl-4-((S)-3-methyltetrahydrofuran-3-carbonyl)-2,3,4,5-tetrahydrobenzo[f][1,4]oxazepine-8-carboxamide] cannot be ordered by pIC50: at least 7.00 for the first, at least 7.00 for the second.

`C[C@H]1COc2cc(C(=O)NO)ccc2CN1C(=O)[C@H]1CCCCO1` [(S)-N-hydroxy-3-methyl-4-((R)-tetrahydro-2H-pyran-2-carbonyl)-2,3,4,5-tetrahydrobenzo[f][1,4]oxazepine-8-carboxamide] and `C[C@H]1COc2cc(C(=O)NO)ccc2CN1C(=O)[C@@H]1CCCCO1` [(S)-N-hydroxy-3-methyl-4-((S)-tetrahydro-2H-pyran-2-carbonyl)-2,3,4,5-tetrahydrobenzo[f][1,4]oxazepine-8-carboxamide] cannot be ordered by pIC50: at least 7.00 for the first, at least 7.00 for the second.

`C[C@H]1COc2cc(C(=O)NO)ccc2CN1C(=O)[C@@H]1CCCOC1` [(S)-N-hydroxy-3-methyl-4-((R)-tetrahydro-2H-pyran-3-carbonyl)-2,3,4,5-tetrahydrobenzo[f][1,4]oxazepine-8-carboxamide] and `C[C@H]1COc2cc(C(=O)NO)ccc2CN1C(=O)[C@H]1CCCOC1` [(S)-N-hydroxy-3-methyl-4-((S)-tetrahydro-2H-pyran-3-carbonyl)-2,3,4,5-tetrahydrobenzo[f][1,4]oxazepine-8-carboxamide] cannot be ordered by pIC50: at least 7.00 for the first, at least 7.00 for the second.

`C[C@H]1COc2cc(C(=O)NO)ccc2CN1C(=O)[C@@H]1CCOC1` [(S)-N-hydroxy-3-methyl-4-((R)-tetrahydrofuran-3-carbonyl)-2,3,4,5-tetrahydrobenzo[f][1,4]oxazepine-8-carboxamide] and `C[C@H]1COc2cc(C(=O)NO)ccc2CN1C(=O)[C@H]1CCOC1` [(S)-N-hydroxy-3-methyl-4-((S)-tetrahydrofuran-3-carbonyl)-2,3,4,5-tetrahydrobenzo[f][1,4]oxazepine-8-carboxamide] cannot be ordered by pIC50: at least 7.00 for the first, at least 7.00 for the second.

`C[C@H]1COc2cc(C(=O)NO)ccc2CN1C(=O)C1COC1` [(S)-N-hydroxy-3-methyl-4-(oxetane-3-carbonyl)-2,3,4,5-tetrahydrobenzo[f][1,4]oxazepine-8-carboxamide] and `C[C@H]1COc2cc(C(=O)NO)ccc2CN1C(=O)C1CCOCC1` [(S)-N-hydroxy-3-methyl-4-(tetrahydro-2H-pyran-4-carbonyl)-2,3,4,5-tetrahydrobenzo[f][1,4]oxazepine-8-carboxamide] cannot be ordered by pIC50: at least 7.00 for the first, at least 7.00 for the second.

`CCC(=O)N1Cc2ccc(C(=O)NO)cc2OC[C@@H]1C` [(S)-N-hydroxy-3-methyl-4-propionyl-2,3,4,5-tetrahydrobenzo[f][1,4]oxazepine-8-carboxamide] and `C[C@H]1COc2cc(C(=O)NO)ccc2CN1C(=O)CC(C)(C)O` [(S)-N-hydroxy-4-(3-hydroxy-3-methylbutanoyl)-3-methyl-2,3,4,5-tetrahydrobenzo[f][1,4]oxazepine-8-carboxamide] cannot be ordered by pIC50: at least 7.00 for the first, at least 7.00 for the second.

`COCC1(C(=O)N2Cc3ccc(C(=O)NO)cc3OC[C@@H]2C)CCC1` [(S)-N-hydroxy-4-(1-(methoxymethyl)cyclobutane-1-carbonyl)-3-methyl-2,3,4,5-tetrahydrobenzo[f][1,4]oxazepine-8-carboxamide] and `COCC1(C(=O)N2Cc3ccc(C(=O)NO)cc3OC[C@@H]2C)CC1` [(S)-N-hydroxy-4-(1-(methoxymethyl)cyclopropane-1-carbonyl)-3-methyl-2,3,4,5-tetrahydrobenzo[f][1,4]oxazepine-8-carboxamide] cannot be ordered by pIC50: at least 7.00 for the first, at least 7.00 for the second.

`COC1(C(=O)N2Cc3ccc(C(=O)NO)cc3OC[C@@H]2C)CCC1` [(S)-N-hydroxy-4-(1-methoxycyclobutane-1-carbonyl)-3-methyl-2,3,4,5-tetrahydrobenzo[f][1,4]oxazepine-8-carboxamide] and `COC1(C(=O)N2Cc3ccc(C(=O)NO)cc3OC[C@@H]2C)CC1` [(S)-N-hydroxy-4-(1-methoxycyclopropane-1-carbonyl)-3-methyl-2,3,4,5-tetrahydrobenzo[f][1,4]oxazepine-8-carboxamide] cannot be ordered by pIC50: at least 7.00 for the first, at least 7.00 for the second.

`COC1(C(=O)N2Cc3ccc(C(=O)NO)cc3OC[C@@H]2C)CCCCC1` [(S)-N-hydroxy-4-(1-methoxycyclohexane-1-carbonyl)-3-methyl-2,3,4,5-tetrahydrobenzo[f][1,4]oxazepine-8-carboxamide] and `COC1(C(=O)N2Cc3ccc(C(=O)NO)cc3OC[C@@H]2C)CCCC1` [(S)-N-hydroxy-4-(1-methoxycyclopentane-1-carbonyl)-3-methyl-2,3,4,5-tetrahydrobenzo[f][1,4]oxazepine-8-carboxamide] cannot be ordered by pIC50: at least 7.00 for the first, at least 7.00 for the second.

`CC1(C(=O)N2Cc3ccc(C(=O)NO)cc3O[C@@H](c3ccccc3)C2)CCC1` [(S)-N-hydroxy-4-(1-methylcyclobutane-1-carbonyl)-2-phenyl-2,3,4,5-tetrahydrobenzo[f][1,4]oxazepine-8-carboxamide] and `C[C@H](C(=O)N1CCOc2cc(C(=O)NO)ccc2C1)c1ccccc1` [(S)-N-hydroxy-4-(2-phenylpropanoyl)-2,3,4,5-tetrahydrobenzo[f][1,4]oxazepine-8-carboxamide] cannot be ordered by pIC50: at least 7.00 for the first, 6.30 to 7.00 for the second.

`COC(C)(C)C(=O)N1Cc2ccc(C(=O)NO)cc2OC[C@@H]1C` [(S)-N-hydroxy-4-(2-methoxy-2-methylpropanoyl)-3-methyl-2,3,4,5-tetrahydrobenzo[f][1,4]oxazepine-8-carboxamide] and `COC(C)(C)CC(=O)N1Cc2ccc(C(=O)NO)cc2OC[C@@H]1C` [(S)-N-hydroxy-4-(3-methoxy-3-methylbutanoyl)-3-methyl-2,3,4,5-tetrahydrobenzo[f][1,4]oxazepine-8-carboxamide] cannot be ordered by pIC50: at least 7.00 for the first, at least 7.00 for the second.

`COCC1(C(=O)N2Cc3ccc(C(=O)NO)cc3OC[C@@H]2C)COC1` [(S)-N-hydroxy-4-(3-(methoxymethyl)oxetane-3-carbonyl)-3-methyl-2,3,4,5-tetrahydrobenzo[f][1,4]oxazepine-8-carboxamide] and `COCC1(C(=O)N2CCOc3cc(C(=O)NO)ccc3[C@@H]2C)COC1` [(S)-N-hydroxy-4-(3-(methoxymethyl)oxetane-3-carbonyl)-5-methyl-2,3,4,5-tetrahydrobenzo[f][1,4]oxazepine-8-carboxamide] cannot be ordered by pIC50: at least 7.00 for the first, at least 7.00 for the second.

Molecule `C[C@H]1COc2cc(C(=O)NO)ccc2CN1C(=O)C(C)(C)CO` [(S)-N-hydroxy-4-(3-hydroxy-2,2-dimethylpropanoyl)-3-methyl-2,3,4,5-tetrahydrobenzo[f][1,4]oxazepine-8-carboxamide] has a pIC50 of at least 7.00.
